Measured values reported in PubChem BioAssay (NCI).
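At the GI50, growth is halved. TGI is the concentration that stops growth completely.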

Experiments:
Test in all cases: inhibition of tumour cell growth, NCI panel, 384-well format
[1] = tested on: 786-0 renal
[2] = tested on: A498 renal
[3] = tested on: A549 NSCLC
[4] = tested on: ACHN renal
[5] = tested on: BT-549 breast
[6] = tested on: CAKI-1 renal
[7] = tested on: CCRF-CEM leukemia
[8] = tested on: COLO 205 colon
[9] = tested on: DU-145 prostate
[10] = tested on: HCC-2998 colon
[11] = tested on: HCT-116 colon
[12] = tested on: HCT-15 colon
[13] = tested on: HL-60(TB) leukemia
[14] = tested on: HOP-62 NSCLC
[15] = tested on: HOP-92 NSCLC
[16] = tested on: HT29 colon
[17] = tested on: IGROV1 ovarian
[18] = tested on: K-562 leukemia
[19] = tested on: KM12 colon
[20] = tested on: LOX IMVI melanoma
[21] = tested on: M14 melanoma
[22] = tested on: MALME-3M melanoma
[23] = tested on: MCF7 breast
[24] = tested on: MDA-MB-231 breast
[25] = tested on: MDA-MB-435 melanoma
[26] = tested on: MDA-MB-468 breast
[27] = tested on: MOLT-4 leukemia
[28] = tested on: NCI-H226 lung
[29] = tested on: NCI-H23 lung
[30] = tested on: NCI-H322M lung
[31] = tested on: NCI-H460 NSCLC
[32] = tested on: NCI-H522 lung
[33] = tested on: NCI/ADR-RES ovarian
[34] = tested on: OVCAR-3 ovarian
[35] = tested on: OVCAR-4 ovarian
[36] = tested on: OVCAR-5 ovarian
[37] = tested on: OVCAR-8 ovarian
[38] = tested on: PC-3 prostate
[39] = tested on: RPMI-8226 leukemia
[40] = tested on: RXF 393 renal
[41] = tested on: SF-268 CNS
[42] = tested on: SF-295 CNS
[43] = tested on: SF-539 CNS
[44] = tested on: SK-MEL-2 melanoma
[45] = tested on: SK-MEL-28 melanoma
[46] = tested on: SK-MEL-5 melanoma
[47] = tested on: SK-OV-3 ovarian
[48] = tested on: SN12C renal
[49] = tested on: SNB-19 CNS
[50] = tested on: SR leukemia
[51] = tested on: SW-620 colon
[52] = tested on: T-47D breast
[53] = tested on: TK-10 renal
[54] = tested on: U251 glioblastoma
[55] = tested on: UACC-257 melanoma
[56] = tested on: UACC-62 melanoma
[57] = tested on: UO-31 renal

COc1cc2c(cc1OC(C)C)[C@H](c1ccc(Cl)cc1)N(c1ccc(N(C)CC3CCC(N4CCN(C)C(=O)C4)CC3)cc1)C(=O)C2 (stereo partly drawn)
GI50 [1]: 1720 nM
TGI [1]: 3120 nM
GI50 [2]: 240 nM
TGI [2]: 1320 nM
GI50 [3]: 387 nM
TGI [3]: 1550 nM
GI50 [4]: 243 nM
TGI [4]: 1280 nM
GI50 [5]: 1580 nM
TGI [5]: 2940 nM
GI50 [6]: 146 nM
TGI [6]: 1180 nM
GI50 [7]: 1940 nM
TGI [7]: 3360 nM
GI50 [8]: 1860 nM
TGI [8]: 3290 nM
GI50 [9]: 1920 nM
TGI [9]: 3510 nM
GI50 [10]: 1730 nM
TGI [10]: 3120 nM
GI50 [11]: 349 nM
TGI [11]: 1490 nM
GI50 [12]: 1820 nM
TGI [12]: 3260 nM
GI50 [13]: 1960 nM
TGI [13]: 3380 nM
GI50 [14]: 2070 nM
TGI [14]: 3520 nM
GI50 [15]: 1590 nM
TGI [15]: 2960 nM
GI50 [16]: 1790 nM
TGI [16]: 3220 nM
GI50 [17]: 1370 nM
TGI [17]: 2700 nM
GI50 [18]: 1760 nM
TGI [18]: 3170 nM
GI50 [19]: 1900 nM
TGI [19]: 3350 nM
GI50 [20]: 946 nM
TGI [20]: 2130 nM
GI50 [21]: 943 nM
TGI [21]: 2160 nM
GI50 [22]: 1180 nM
TGI [22]: 2430 nM
GI50 [23]: 378 nM
TGI [23]: 1570 nM
GI50 [24]: 1800 nM
TGI [24]: 3200 nM
GI50 [25]: 2010 nM
TGI [25]: 3460 nM
GI50 [26]: 2030 nM
TGI [26]: 3470 nM
GI50 [27]: 37.8 nM
TGI [27]: 138 nM
GI50 [28]: 134 nM
TGI [28]: 374 nM
GI50 [29]: 1930 nM
TGI [29]: 4370 nM
GI50 [30]: 1710 nM
TGI [30]: 3270 nM
GI50 [31]: 316 nM
TGI [31]: 1420 nM
GI50 [32]: 1860 nM
TGI [32]: 3330 nM
GI50 [33]: 1770 nM
TGI [33]: 3220 nM
GI50 [34]: 1690 nM
TGI [34]: 3080 nM
GI50 [35]: 1760 nM
TGI [35]: 3180 nM
GI50 [36]: 1850 nM
TGI [36]: 3310 nM
GI50 [37]: 1820 nM
TGI [37]: 3250 nM
GI50 [38]: 1790 nM
TGI [38]: 3190 nM
GI50 [39]: 1530 nM
TGI [39]: 2880 nM
GI50 [40]: 1690 nM
TGI [40]: 3070 nM
GI50 [41]: 1900 nM
TGI [41]: 3340 nM
GI50 [42]: 1620 nM
TGI [42]: 2990 nM
GI50 [43]: 1740 nM
TGI [43]: 3140 nM
GI50 [44]: 1810 nM
TGI [44]: 3210 nM
GI50 [45]: 1790 nM
TGI [45]: 3190 nM
GI50 [46]: 1300 nM
TGI [46]: 2580 nM
GI50 [47]: 1580 nM
TGI [47]: 2940 nM
GI50 [48]: 1810 nM
TGI [48]: 3220 nM
GI50 [49]: 1940 nM
TGI [49]: 3490 nM
GI50 [50]: 29.1 nM
TGI [50]: 101 nM
GI50 [51]: 1910 nM
TGI [51]: 3360 nM
GI50 [52]: 1760 nM
TGI [52]: 3230 nM
GI50 [53]: 1820 nM
TGI [53]: 3310 nM
GI50 [54]: 1750 nM
TGI [54]: 3160 nM
GI50 [55]: 1350 nM
TGI [55]: 2640 nM
GI50 [56]: 92.4 nM
TGI [56]: 1580 nM
GI50 [57]: 288 nM
TGI [57]: 1310 nM

Cc1c(C)n(CCCN2CCN(C)CC2)c2ccc(Oc3cccc(C(=O)N4CCN(CCc5ccc(F)cc5)CC4)c3)cc12
GI50 [1]: 1520 nM
TGI [1]: 2870 nM
GI50 [2]: 1520 nM
TGI [2]: 2860 nM
GI50 [3]: 1600 nM
TGI [3]: 2980 nM
GI50 [4]: 1610 nM
TGI [4]: 2980 nM
GI50 [5]: 1320 nM
TGI [5]: 2600 nM
GI50 [6]: 1510 nM
TGI [6]: 2850 nM
GI50 [7]: 1630 nM
TGI [7]: 2990 nM
GI50 [8]: 1680 nM
TGI [8]: 3070 nM
GI50 [9]: 1730 nM
TGI [9]: 3130 nM
GI50 [10]: 1430 nM
TGI [10]: 2740 nM
GI50 [11]: 1470 nM
TGI [11]: 2800 nM
GI50 [12]: 1430 nM
TGI [12]: 2750 nM
GI50 [13]: 2030 nM
TGI [13]: 3460 nM
GI50 [14]: 1630 nM
TGI [14]: 3000 nM
GI50 [15]: 1430 nM
TGI [15]: 2740 nM
GI50 [16]: 1450 nM
TGI [16]: 2800 nM
GI50 [17]: 1580 nM
TGI [17]: 2940 nM
GI50 [18]: 1430 nM
TGI [18]: 2760 nM
GI50 [19]: 1720 nM
TGI [19]: 3120 nM
GI50 [20]: 2090 nM
TGI [20]: 3540 nM
GI50 [21]: 1600 nM
TGI [21]: 2960 nM
GI50 [22]: 1410 nM
TGI [22]: 2710 nM
GI50 [23]: 1720 nM
TGI [23]: 3110 nM
GI50 [24]: 1910 nM
TGI [24]: 3320 nM
GI50 [25]: 1720 nM
TGI [25]: 3110 nM
GI50 [26]: 1390 nM
TGI [26]: 2690 nM
GI50 [27]: 1810 nM
TGI [27]: 3200 nM
GI50 [28]: 1590 nM
TGI [28]: 2940 nM
GI50 [29]: 1500 nM
TGI [29]: 2830 nM
GI50 [30]: 1640 nM
TGI [30]: 3010 nM
GI50 [31]: 1850 nM
TGI [31]: 3320 nM
GI50 [32]: 1680 nM
TGI [32]: 3050 nM
GI50 [33]: 1570 nM
TGI [33]: 2920 nM
GI50 [34]: 1610 nM
TGI [34]: 2970 nM
GI50 [35]: 1750 nM
TGI [35]: 3130 nM
GI50 [36]: 1660 nM
TGI [36]: 3030 nM
GI50 [37]: 1620 nM
TGI [37]: 3000 nM
GI50 [38]: 1650 nM
TGI [38]: 3020 nM
GI50 [39]: 1300 nM
TGI [39]: 2560 nM
GI50 [40]: 1420 nM
TGI [40]: 2730 nM
GI50 [41]: 1780 nM
TGI [41]: 3180 nM
GI50 [42]: 1800 nM
TGI [42]: 3200 nM
GI50 [43]: 1610 nM
TGI [43]: 2980 nM
GI50 [44]: 1760 nM
TGI [44]: 3140 nM
GI50 [45]: 1680 nM
TGI [45]: 3060 nM
GI50 [46]: 1280 nM
TGI [46]: 2550 nM
GI50 [47]: 1520 nM
TGI [47]: 2860 nM
GI50 [48]: 1630 nM
TGI [48]: 2990 nM
GI50 [49]: 1710 nM
TGI [49]: 3100 nM
GI50 [50]: 1460 nM
TGI [50]: 2790 nM
GI50 [51]: 1770 nM
TGI [51]: 3190 nM
GI50 [52]: 1490 nM
TGI [52]: 2820 nM
GI50 [53]: 1590 nM
TGI [53]: 2940 nM
GI50 [54]: 1700 nM
TGI [54]: 3100 nM
GI50 [55]: 889 nM
TGI [55]: 2100 nM
GI50 [56]: 1780 nM
TGI [56]: 3170 nM
GI50 [57]: 1610 nM
TGI [57]: 2970 nM
